Experimental findings from ChEMBL document CHEMBL1125437, “Syntheses, resolution, and structure-activity relationships of potent acetylcholinesterase inhibitors: 8-carbaphysostigmine analogues” (J Med Chem, 1992) are described below.

Series [1] concerns Mus musculus. Description: (§1) In vitro lethality measured at 24 hours in mice following intraperitoneal administration. The settings on record: in vivo, ip, 24 h.
In series [2] the test system is Mus musculus. Description: Percent elevation of ACh level in mouse forebrain following intraperitoneal administration at a dose of 0.8 mg/kg. The format is functional.
The target of series [3] is T1, Acetylcholinesterase (Homo sapiens, UniProt P22303). In words: In vitro inhibitory activity against human AchE (Acetylcholinesterase).
In series [4] the target is T1, Acetylcholinesterase. Description: In vitro inhibitory activity against human Acetylcholinesterase.
Series [5] in a line: as §1. The settings on record: mouse, in vivo, ip, LD50.
Series [6] relates to Mus musculus. In words: Percent elevation of ACh level in mouse forebrain following intraperitoneal administration at a dose of 3.4 mg/kg. The format is functional.
Series [7] concerns Mus musculus. In words: Percent elevation of ACh level in mouse forebrain following intraperitoneal administration at a dose of 4.8 mg/kg. It is filed as functional.
Series [8] relates to Mus musculus. Description: Percent elevation of ACh level in mouse forebrain following intraperitoneal administration at a dose of 0.4 mg/kg. The format is functional.
Series [9] concerns Mus musculus. Description: Percent elevation of ACh level in mouse forebrain following intraperitoneal administration at a dose of 1.6 mg/kg. It is filed as functional.
The test system of series [10] is Mus musculus. Description: Percent elevation of ACh level in mouse forebrain following intraperitoneal administration at a dose of 1.2 mg/kg. The format is functional.
Series [11] deals with Mus musculus. Description: Percent elevation of ACh level in mouse forebrain following intraperitoneal administration at a dose of 2.0 mg/kg. It is filed as functional.

T1 sequence (P22303 whole entry): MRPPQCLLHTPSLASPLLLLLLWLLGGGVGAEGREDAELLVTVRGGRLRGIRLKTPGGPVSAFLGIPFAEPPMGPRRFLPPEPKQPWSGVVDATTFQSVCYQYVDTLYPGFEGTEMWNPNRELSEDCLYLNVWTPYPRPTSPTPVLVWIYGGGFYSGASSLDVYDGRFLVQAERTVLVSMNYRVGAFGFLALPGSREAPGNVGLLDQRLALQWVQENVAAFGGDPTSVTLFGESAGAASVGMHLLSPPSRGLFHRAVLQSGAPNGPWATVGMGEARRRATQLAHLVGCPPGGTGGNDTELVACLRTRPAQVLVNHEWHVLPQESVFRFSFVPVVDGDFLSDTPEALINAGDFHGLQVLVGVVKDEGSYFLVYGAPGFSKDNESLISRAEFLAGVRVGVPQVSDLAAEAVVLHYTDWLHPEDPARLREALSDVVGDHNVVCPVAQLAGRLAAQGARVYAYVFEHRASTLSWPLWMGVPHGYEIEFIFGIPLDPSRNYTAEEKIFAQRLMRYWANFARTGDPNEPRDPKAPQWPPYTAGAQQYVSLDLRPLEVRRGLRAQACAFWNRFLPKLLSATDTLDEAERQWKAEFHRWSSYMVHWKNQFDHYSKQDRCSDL

Molecule `CCCCCCNC(=O)Oc1ccc2c(c1)[C@]1(C)CCN(CC)C1C2` (single isomer, unassigned; (-)) had an LD50 in the series with Mus musculus [1] of 4 mg/kg. In the series on Mus musculus [2], this molecule gave a Control of 148%. Moreover, inhibition against Acetylcholinesterase [3] was half-maximal at 20 nM (IC50). `CCCCCCCNC(=O)Oc1ccc2c(c1)[C@]1(C)CCN(CC)C1C2` (mixture of isomers): the LD50 in the series on Mus musculus [1] is 9 mg/kg. This molecule also returned a half-maximal inhibitory concentration (IC50) on Acetylcholinesterase [3] of 58 nM. Take `CCCCCCNC(=O)Oc1ccc2c(c1)[C@@H]1CCN(CCC)C1C2` (stereo in doubt; 1z): half-maximal inhibition on Acetylcholinesterase [3] (IC50) was put at 518 nM.

Turning to `CCCCCCNC(=O)Oc1ccc2c(c1)[C@]1(C)CCN(CCC)C1C2.Cc1ccc(C(=O)OC(C(=O)O)C(OC(=O)c2ccc(C)cc2)C(=O)O)cc1.O` (mixture of isomers), it took 62 nM to reach half-maximal inhibition against Acetylcholinesterase [4] (IC50). For the same molecule, the LD50 at 24 h in series [5] was 17 mg/kg. The same molecule registered a Control in the series on Mus musculus [6] of 141%. For the molecule `CCCCCCNC(=O)Oc1ccc2c(c1)[C@]1(C)CCN(CC)C1C2` (mixture of isomers), the LD50 in the series with Mus musculus [1] is 5 mg/kg. The molecule also yielded an IC50 against Acetylcholinesterase [3] of 45 nM. On Acetylcholinesterase [3], `CCCNC(=O)Oc1ccc2c(c1)[C@@H]1CCN(CC)C1C2` (stereo partly drawn) yielded an IC50 of 2190 nM.

`CCN1CC[C@@]2(C)c3cc(OC(=O)NC)ccc3CC12` (mixture of isomers) returned a concentration for half-maximal inhibition (IC50) against Acetylcholinesterase [4] of 38 nM. The molecule further had an LD50 at 24 h in series [5] of 0.88 mg/kg.

For the molecule `CCCCCCCNC(=O)Oc1ccc2c(c1)[C@]1(C)CCN(CC)C1C2` (single isomer, unassigned; (+)), in the series with Mus musculus [1], the LD50 was determined as 18 mg/kg. In addition, the IC50 against Acetylcholinesterase [3] is 211 nM. As for `CCCCCCNC(=O)Oc1ccc2c(c1)[C@@H]1CCN(CC)C1C2` (mixture of isomers), the LD50 at 24 h in series [5] turned out to be 19 mg/kg. At Acetylcholinesterase [3], this molecule returned an IC50 of 208 nM. Take `CCCNC(=O)Oc1ccc2c(c1)[C@]1(C)CCN(CC)C1C2` (mixture of isomers): the LD50 at 24 h in series [5] amounted to 6 mg/kg. Also, the IC50 against Acetylcholinesterase [3] stood at 154 nM.

At Acetylcholinesterase [4], `CCCCCCCNC(=O)Oc1ccc2c(c1)[C@]1(C)CCN(CCC)C1C2` (stereo partly drawn) yielded an IC50 of 93 nM. In addition, the LD50 at 24 h in series [5] was found to be 27 mg/kg. On Acetylcholinesterase [4], `CCCCCCCNC(=O)Oc1ccc2c(c1)[C@@H]1CCN(CC)C1C2` (mixture of isomers) yielded an IC50 of 381 nM. The LD50 at 24 h in series [5] amounted to 58 mg/kg. For the molecule `CCCCCCCNC(=O)Oc1ccc2c(c1)[C@]1(C)CCN(C)[C@@H]1N2C` [EPTASTIGMINE], the LD50 at 24 h in series [5] is 24 mg/kg. This molecule returned a Control in the series on Mus musculus [7] of 148%. The molecule also yielded an IC50 on Acetylcholinesterase [3] of 110 nM. On Acetylcholinesterase [3], `CCN1CC[C@@]2(C)c3cc(OC(=O)N[C@@H](C)c4ccccc4)ccc3CC12` (stereo partly drawn) showed an IC50 of 1330 nM.

With `CCN1CC[C@@]2(C)c3cc(OC(=O)NC(C)(C)C)ccc3CC12` (mixture of isomers), in [5], the LD50 at 24 h is > 100 mg/kg. Same read-out and setting: in the case of `CNC(=O)Oc1ccc2c(c1)[C@]1(C)CCN(C)[C@@H]1N2C` [PHYSOSTIGMINE] it was 0.88 mg/kg. Take `CCCCNC(=O)Oc1ccc2c(c1)[C@@H]1CCN(CC)C1C2` (mixture of isomers): the LD50 at 24 h in series [5] is > 32 mg/kg. Further, inhibition at Acetylcholinesterase [3] was half-maximal at 1080 nM (IC50). `CCN1CC[C@H]2c3cc(OC(=O)NC)ccc3CC21` (stereo partly drawn) gave an IC50 against Acetylcholinesterase [3] of 253 nM.

Molecule `CCCCCCCNC(=O)Oc1ccc2c(c1)[C@]1(C)CCN(C)C1C2` (stereo partly drawn) had an LD50 at 24 h in series [5] of 21 mg/kg. For the same molecule, at Acetylcholinesterase [3], the IC50 was found to be 114 nM. For `CCCCCCCNC(=O)Oc1ccc2c(c1)[C@]1(C)CCN(Cc3ccccc3)C1C2` (stereo partly drawn), the IC50 on Acetylcholinesterase [4] worked out at 506 nM. `CCN1CC[C@@]2(C)c3cc(OC(=O)NCc4ccccc4)ccc3CC12` (mixture of isomers) showed an LD50 at 24 h in [5] of 2 mg/kg. In the series with Mus musculus [8], this molecule had a Control of 123%.

`CCCCNC(=O)Oc1ccc2c(c1)[C@]1(C)CCN(CC)C1C2` (mixture of isomers) yielded an IC50 against Acetylcholinesterase [4] of 90 nM. In [5], this molecule displayed an LD50 at 24 h of 4 mg/kg.

For the molecule `CCCCCCNC(=O)Oc1ccc2c(c1)[C@]1(C)CCN(CC)C1C2` (single isomer, unassigned; (+)), the LD50 in the series on Mus musculus [1] is 32 mg/kg. In addition, the IC50 on Acetylcholinesterase [3] is 233 nM. On Acetylcholinesterase [3], `CCCCCCCNC(=O)Oc1ccc2c(c1)[C@@H]1CCN(CCC)C1C2` (stereo partly drawn) had an IC50 of 629 nM. Regarding `CCCCCCNC(=O)Oc1ccc2c(c1)[C@@H]1CCN(CCC)C1C2` (stereo in doubt; 1y), the midpoint of inhibition against Acetylcholinesterase [3], the IC50, lay at 546 nM.

Turning to `CCN1CC[C@@]2(C)c3cc(OC(=O)Nc4ccccc4)ccc3CC12` (mixture of isomers), the LD50 at 24 h in series [5] came out at 8 mg/kg. In the series on Mus musculus [9], the Control was 121%. The molecule further returned an IC50 against Acetylcholinesterase [3] of 176 nM.

Take `CCCCCCCNC(=O)Oc1ccc2c(c1)[C@]1(C)CCN(CC)C1C2` (single isomer, unassigned; (-)): in the series with Mus musculus [1], the LD50 came out at 6 mg/kg. The molecule further displayed a Control in the series on Mus musculus [10] of 129%. At Acetylcholinesterase [3], this molecule gave an IC50 of 36 nM. Molecule `CCCCCCNC(=O)Oc1ccc2c(c1)[C@]1(C)CCN(C)C1C2` (mixture of isomers) came in with an LD50 at 24 h in series [5] of 10 mg/kg. The molecule further yielded an IC50 at Acetylcholinesterase [3] of 77 nM. The Control in the series on Mus musculus [11] worked out at 162%.
